The term IC50 denotes the midpoint of a concentration-inhibition curve. For orientation: bioavailability means the share of a dose that reaches the circulation, judged against a reference dose that is usually intravenous. One may read the CC50 as the concentration at which the toxic effect on the cells reaches its halfway point. For orientation: IC90 means the concentration at which the effect reaches the 90% level. What is called Ki is the equilibrium dissociation constant of an inhibitor or competing ligand from its target. As usually defined, the half-life is the time needed for the level to fall by half in the phase considered. A word on the Kd: it is a measure of binding affinity in units of concentration.

Data set [1] relates to Human immunodeficiency virus 1. Briefly: Antiviral activity against HIV-1 infected in PBMC (unknown origin). The conditions noted are these: Human immunodeficiency virus 1, PBMC.
Data set [2] can be described thus: Oral bioavailability in cynomolgus monkey. The note with it: in vivo.
The nature of data set [3]: Cytotoxicity against human CEM cells measured after 6 days. The note with it: CEM cells (CCRF-CEM).
Data set [4] can be described thus: Oral bioavailability in rat. The note with it: in vivo.
Data set [5] relates to Human immunodeficiency virus 1. Briefly: Antiviral activity against HIV-1 LAV infected in human CEM cells. The conditions noted are these: Human immunodeficiency virus 1, LAV, CCRF-CEM. The data set is classed as functional, organism-based.
Data set [6] is described as follows: Cytotoxicity against human HeLa-MAGI-CCR5 cells.
Data set [7] is described as follows: Cytotoxicity against PBMC (unknown origin).
The test system of data set [8] is Human immunodeficiency virus 1. Briefly: Antiviral activity against HIV-1 infected in lymphoblastoid cell (unknown origin). The conditions noted are these: Human immunodeficiency virus 1, Lymphoblastoid cell.
The test system of data set [9] is Human immunodeficiency virus 1. Briefly: Antiviral activity against HIV-1 infected in human HeLa-MAGI-CCR5 cells. The note with it: Human immunodeficiency virus 1, HeLa-MAGI-CCR5.
Data set [10] is described as follows: Cytotoxicity against lymphoblastoid cell (unknown origin). The conditions noted are these: lymphoblastoid cells.
The nature of data set [11]: Oral bioavailability in mouse. The conditions noted are these: in vivo.
The subject of data set [12] is Human immunodeficiency virus 1. Briefly: Antiviral activity against HIV-1 infected in human MT4 cells assessed as reduction in virus induced cytopathic effect. Format: functional, organism-based. The conditions noted are these: Human immunodeficiency virus 1, MT4. For orientation: Damage to the host cells serves as the signal in cytopathic effect assays.
The nature of data set [13]: Inhibition of HIV integrase strand transfer activity. Set-up: species or system Human immunodeficiency virus.
Data set [14] in a line: Inhibition of HIV-1 integrase by multiple well plate integration assay. More on the design: species or system Human immunodeficiency virus.
Data set [15] relates to Human immunodeficiency virus 1. Briefly: Antiviral activity against HIV-1 214 infected in human CEM-SS cells assessed as reduction in virus-induced cytopathic effect by XTT assay. Format: functional, organism-based. The note with it: Human immunodeficiency virus 1, 214, CEM-SS.
Data set [16] has as its system Human immunodeficiency virus 1. Briefly: Antiviral activity against HIV-1 205 infected in human CEM-SS cells assessed as reduction in virus-induced cytopathic effect by XTT assay. The data set is classed as functional, organism-based. The conditions noted are these: Human immunodeficiency virus 1, 205, CEM-SS.
Data set [17] has as its system Human immunodeficiency virus 1. Briefly: Antiviral activity against HIV-1 G infected in human CEM-SS cells assessed as reduction in virus-induced cytopathic effect by XTT assay. The conditions noted are these: Human immunodeficiency virus 1, G. The data set is classed as functional, organism-based.
Data set [18] deals with Human immunodeficiency virus 1. Briefly: Antiviral activity against HIV-1 TP-1 infected in human CEM-SS cells assessed as reduction in virus-induced cytopathic effect by XTT assay. The data set is classed as functional, organism-based. The conditions noted are these: Human immunodeficiency virus 1, TP-1, CEM-SS.
The subject of data set [19] is Human immunodeficiency virus 1. Briefly: Antiviral activity against HIV-1 PM16 infected in human CEM-SS cells assessed as reduction in virus-induced cytopathic effect by XTT assay. The data set is classed as functional, organism-based. The conditions noted are these: Human immunodeficiency virus 1, PM16, CEM-SS.
The test system of data set [20] is Human immunodeficiency virus 1. Briefly: Antiviral activity against HIV-1 LAV infected in human CEM-SS cells assessed as reduction in virus-induced cytopathic effect by XTT assay. The data set is classed as functional, organism-based. The conditions noted are these: Human immunodeficiency virus 1, LAV.
The subject of data set [21] is Human immunodeficiency virus 1. Briefly: Antiviral activity against HIV-1 KELL infected in human CEM-SS cells assessed as reduction in virus-induced cytopathic effect by XTT assay. The data set is classed as functional, organism-based. The note with it: Human immunodeficiency virus 1, KELL.
The test system of data set [22] is Human immunodeficiency virus 1. Briefly: Antiviral activity against HIV-1 SK-1 infected in human CEM-SS cells assessed as reduction in virus-induced cytopathic effect by XTT assay. The data set is classed as functional, organism-based. The conditions noted are these: Human immunodeficiency virus 1, SK-1, CEM-SS.
Data set [23] has as its system Human immunodeficiency virus 1. Briefly: Antiviral activity against HIV-1 IIIB infected in human H9 cells. Format: functional, organism-based. The note with it: Human immunodeficiency virus 1, IIIB.
The subject of data set [24] is Human immunodeficiency virus. Briefly: Antiviral activity against HIV. Format: functional, organism-based. The note with it: Human immunodeficiency virus 1.
A short description of data set [25]: Binding affinity to HIV protease assessed as inhibition constant. Set-up: species or system Human immunodeficiency virus.
For data set [26], the target named is Human immunodeficiency virus type 1 protease (Human immunodeficiency virus 1, UniProt Q72874). Briefly: Inhibition of HIV-1 protease expressed in Escherichia coli incubated for 90 mins by fluorescence based analysis.
For data set [27], the system named is Human immunodeficiency virus 1. Briefly: Antiviral activity against HIV-1 IIIB infected in human MT4 cells incubated for 7 days by ELISA. Format: functional, organism-based. The note with it: Human immunodeficiency virus 1, IIIB, MT4, 168 h.
For data set [28], the system named is Human immunodeficiency virus 1. Briefly: Antiviral activity against VSV-G pseudotyped HIV-1 infected in HEK293T cells assessed as inhibition of early stage viral replication preincubated with cells for 30 mins followed by viral infection for 3 hrs and measured 48 hrs after media replacement with compound by luciferase assay. The note with it: Human immunodeficiency virus 1, HEK-293T. Format: functional, organism-based.

Data set [29] is described as follows: Metabolic stability in rhesus monkey hepatocytes assessed as half-life. The data set is classed as ADME, cell-based, Macaca mulatta, Hepatocyte.
Data set [30] relates to Human immunodeficiency virus 1. Briefly: Antiviral activity HIV-1 infected in HEK293T cells assessed as inhibition of late stage viral replication. Format: functional, organism-based. The note with it: Human immunodeficiency virus 1, HEK-293T.
The nature of data set [31]: Cytotoxicity against HEK293T cells incubated for 72 hrs by MTT assay. The conditions noted are these: human. Format: toxicity, cell-based, HEK-293T. A general note: Tetrazolium assays rely on reduction of a dye to a coloured formazan, in cell work by metabolically active cells.
The test system of data set [32] is Human immunodeficiency virus 1. Briefly: Antiviral activity against HIV-1 infected in human PBMC. Format: functional, organism-based. The conditions noted are these: Human immunodeficiency virus 1, PBMC.
The target in data set [33] is Human immunodeficiency virus type 1 Gag protein (Human immunodeficiency virus 1, UniProt Q77YG1). Briefly: Binding affinity to HIV1 Gag assessed as dissociation constant.

A value given as a limit tells only on which side of the number the result lay.

`Nc1nc(=O)n([C@@H]2CS[C@H](CO)O2)cc1F` [EMTRICITABINE]: the IC50 in data set [1] came out at 1 nM; in [5] it was 9 nM; in [8] it was 1 nM; in data set [9], 1 nM. Also, the bioavailability in data set [2], in data set [4] and in data set [11] was around 58% in each case. The compound further yielded a 50% cytotoxic concentration (CC50) at 144 h in data set [3] above 100000 nM. For the same compound, the CC50 in data set [6], in data set [7] and in [10] was above 200000 nM throughout.

Take `Cc1c(Sc2ccccc2)n(COCCO)c(=O)[nH]c1=O` [HEPT]: in [12], the IC50 was found to be 7000 nM.

In the case of `O=C(NCc1c(F)cc(F)cc1F)c1cn2c(c(O)c1=O)C(=O)N1[C@H]3CC[C@H](C3)O[C@@H]1C2` [BICTEGRAVIR], the IC50 in data set [13] is 2.4 nM.

On to `O=C(O)/C(O)=C/C(=O)C1C=Nc2ccc(Cl)cc21` (centres undefined), for which half-maximal inhibition in data set [14] (IC50) was put at 2300 nM.

As to `O=S1(c2ccccc2)=NC(=S)Nc2ccccc21` (centres undefined), the 50% inhibitory concentration (IC50) in [15], in data set [16], in [17], in data set [18], in data set [19] and in data set [20] was 950 nM throughout. The 50% inhibitory concentration (IC50) in [21] and in [22] was 950 nM each time.

In [23], `CCC[C@@]1(CCc2ccccc2)CC(O)=C([C@H](CC)c2cccc(NS(=O)(=O)c3ccc(C(F)(F)F)cn3)c2)C(=O)O1` had a 50% inhibitory concentration (IC50) of 30 nM and an IC90 of 100 nM. Further, in [24], inhibition was half-maximal at 30 nM (IC50). Besides, the Ki in [25] is 8 nM.

In data set [26], `CCCC(CCc1ccccc1)c1cc(O)c(C(CC)c2ccccc2)c(=O)o1` (centres undefined) yielded an inhibition constant Ki of 35 nM.

For the compound `CCC(Cc1ccccc1)c1cc(O)c(C(CC)c2ccccc2)c(=O)o1` (centres undefined), in data set [27], inhibition was half-maximal at 3000 nM (IC50).

With `CC(C)(C#Cc1ccc(-c2ccc(Cl)c3c(NS(C)(=O)=O)nn(CC(F)(F)F)c23)c([C@H](Cc2cc(F)cc(F)c2)NC(=O)Cn2nc(C(F)(F)F)c3c2C(F)(F)[C@@H]2C[C@H]32)n1)S(C)(=O)=O`, the IC50 in [28] is 0.055 nM; in data set [30], 0.314 nM; in data set [32] it was 0.05 nM. Further, the half-life in data set [29] was 202 h. In addition, in [31], the cytotoxic concentration (CC50) at 72 h is above 50000 nM. In [33], the equilibrium dissociation constant (Kd) worked out at 1.1 nM.
